Reference: patent publication US12473313B2, “Therapeutic compounds and methods of use thereof” (Regents of the University of Minnesota, priority 2020, dated 2025)

Key:
[1] = target: mitochondrial reactive oxygen species (mitoROS); experiment: ROS-Glo Assay of superoxide dismutase activity on menadione-induced mitoROS; assay type: cell-based; details: for half maximal effective concentration (EC50) for mitoROS suppression: FIG. 6, compared with mitoTEMPO
From the text: To test compounds for mitochondrial antioxidant behavior, the ROS-Glo Assay to assess superoxide dismutase activity of induced mitochondrial reactive oxygen species (mitoROS). In this assay, menadione is used to induce mitoROS production, and then a […] is used to measure the resultant hydrogen peroxide levels. A higher level of hydrogen peroxide means more dismutase activity.

diabetic mice = experiment: Diastolic dysfunction (E/e′ ratio by echocardiography) in high fat diet diabetic mice; assay type: in vivo; details: diabetic mice (high fat diet 16 weeks), 1 mg/kg/day for 2 weeks
Procedure: (§1) To test compound activity against mitochondrial oxidative stress and diastolic dysfunction Mice were fed a high fat diet for 16 weeks starting at 6 weeks of age. Before treatment, fasting blood glucose (Gluc) and body weight were measured. Gluc was used to screen for diabetes mellitus (DM). Echocardiography was used to identify DD by measuring the E/e′ ratio. Treatment of compounds 58 and 94 was 1 mg/kg/day for 2 weeks. Then, E/e′ was reassessed.

[2] = Body weight and serum glucose of treated diabetic mice; assay type: in vivo; details: 1 mg/kg/day for 2 weeks, versus before treatment
Procedure: as §1

mice with HFpEF = mice with HFpEF (Jeong et al. J Am Heart Assoc. 2016); cited from earlier work
[3] = system: mitoROS in diabetic (DM) mice; experiment: mitoROS in diabetic (DM) mice measured by mitoSOX Red fluorescence; assay type: in vivo; details: FIG. 9
Procedure: as §1

Compound | half maximal effective concentration (EC50) for mitoROS suppression [1] | diastolic dysfunction as measured by E/e′ ratio (diabetic mice) | body weight [2] | also measured
CC1(C)CC(NC(=O)CCCCC[P+](c2ccc(F)cc2)(c2ccc(F)cc2)c2ccc(F)cc2)CC(C)(C)N1[O].[Br-] [compound 86, 2,2,6,6-Tetramethyl-4-[[6-(tri-4-fluorophenylphosphonio)-hexanoyl]amino]-1-piperidinyloxy Bromide] | lower EC50s for mitoROS suppression than did mitoTEMPO |  |  | 
COc1ccc([P@TB15+](CC(=O)NC2CC(C)(C)N([O])C(C)(C)C2)(c2ccc(OC)cc2)c2ccc(OC)cc2)cc1 [compound 2, 2,2,6,6-Tetramethyl-4-[[2-(tri-4-methoxyphenyl-phosphonio)acetyl]amino]-1-piperidinyloxy Chloride] | lower EC50s for mitoROS suppression than did mitoTEMPO |  |  | 
COc1cc(OC)c([P+](CC(=O)NC2CC(C)(C)N([O])C(C)(C)C2)(c2c(OC)cc(OC)cc2OC)c2c(OC)cc(OC)cc2OC)c(OC)c1.[Cl-] [compound 88, 2,2,6,6-Tetramethyl-4-[[2-(tri-2,4,6-trimethoxyphenyl(2-phosphonia))acetyl]amino]-1-piperidinyloxy Chloride] | lower EC50s for mitoROS suppression than did mitoTEMPO |  |  | 
CC1(C)CC(NC(=O)C[P+](c2ccc(F)cc2)(c2ccc(F)cc2)c2ccc(F)cc2)CC(C)(C)N1[O].[Cl-] [compound 94, 2,2,6,6-Tetramethyl-4-[[2-(tri-4-fluorophenylphosphonio)-acetyl]amino]-1-piperidinyloxy Chloride] |  | Diastolic dysfunction is treated | did not affect | 
CC1(C)CC(NC(=O)C[P+](c2ccccc2)(c2ccccc2)c2ccccc2)CC(C)(C)N1[O] [mitoTEMPO] |  |  |  | diastolic function (mice with HFpEF): improve diastolic function
COc1ccc([P+](CCC(=O)NC2CC(C)(C)N(O)C(C)(C)C2)(c2ccc(OC)cc2)c2ccc(OC)cc2)cc1.[Br-] [compound 58, 2,2,6,6-Tetramethyl-4-[[3-(tri-4-methoxyphenylphosphonio)-propionyl]amino]-1-piperidinyloxy Bromide] |  | Diastolic dysfunction is treated | Neither serum glucose nor body weight were affected | half maximal inhibitory concentration (IC50) ([1]; ROS-Glo assay, FIG. 5, compared with mitoTEMPO): better than that of mitoTEMPO; mitoROS as measured by mitoSOX Red fluorescence [3]: able to reduces mitoROS
